In US12642791B2, “Inhibitors of lysyl oxidases” (UNIVERSITY OF SOUTH CAROLINA, priority 2021, dated 2026):

Legend:
Caki-1 cells = test: ECM crosslinking in kidney cancer cells; format: cell-based, human; settings: 6232 at 10 uM, BAPN at 10 mM
Procedure: Immunofluorescence staining of cells was done in μ-Slide 8-well glass bottom chambers (Ibidi, Germany). Cells were fixed with 4% paraformaldehyde for 20 min, permeabilized with 0.5% Triton X-100 for 10 min and blocked in 5% BSA-PBS. Samples were incubated with primary (Collagen I, Fibronectin, F-actin, a-SMA) and secondary Alexa Fluor 647 or 488-labeled antibodies for 1.5 hours at room temperature. Cells were also counterstained with DAPI for 5 min. Images were acquired using ZEN 2012 SP5 (Black) LSM 700 (Carl Zeiss, DE).

PK analysis = format: in vivo, BALB/c mice; settings: mice, orally 50 mg/kg, n=3
Procedure: PK profiles of Lead LOX inhibitor, 6403 was tested in BALB/c mice. Three mice per group were dosed by oral gavage at 50 mg/kg. Serum samples were collected at time points; 0.25, 0.5, 2, 7 and 24 hours. 6403 was diluted with serum from healthy mice as standard and serum levels of LOX inhibitors were quantified by LC-MS/MS methods, compared to the standard readings and followed by calculation of PK parameters, including Cmax, AUC, T1/2 values, clearance (Cl) and oral bioavailability (F %). Cmax represents the maximum concentration of drug that observed in the serum. AUC is a measure of the total exposure of the drug in the serum. T1/2, half-life, is the time required to eliminate half of the drug. Cl is defined as the volume of blood from which all drug is removed per minute.

In vivo toxicity testing = test: In vivo toxicity testing; parameters: species or system BALB/c mice
Procedure: FIG. 41. In vivo testing of 6403 with respect to PK and toxicity. A. Summary of PK parameters of 6403 given orally with 50 mg/kg, n=3. B. H&E staining of organs of BALB/c mice treated daily with 50 or 200 mg/kg of 6403 for one week. C. Body weight of mice treated with vehicle or 25, 50, 75, 100 or 200 mg/kg of 6403 for 5 days. D. Cell-free enzymatic MAO-A and MAO-B assay.

4T1 = test: Syngeneic TNBC tumor model; format: in vivo, BALB/c mice
Procedure: FIG. 43. 6403 overcomes doxorubicin resistance without major toxicity in a syngeneic mouse model, 4T1. A. Tumor growth in 4T1 model treated with doxorubicin (2 mg/kg, I.V, weekly), 6403 (50 mg/kg, P.O, daily) or their combination. Representative pictures of the tumors shown on the right panel. B. Western blot analysis of LOX in 4T1 tumors from A. C. % body weight change of mice from A. D. Blood cell counts in mice from A at the end of the experiment. 500,000 4T1 cells were injected into MFP of 6-8 weeks old female BALB/c mice. When the tumors reach 100 mm3, mice were randomly distributed to 4 groups and treated with vehicle, doxorubicin (2 mg/kg once a week, I.V.), 6403 (50 mg/kg daily, oral gavage) or the combination of doxorubicin with 6403. Tumor volumes were measured using a caliper every two days, and body weights were also recorded. After 3 weeks of treatment, blood was withdrawn, and blood cells were quantified using VetScan HM5 Hematology Analyzer.

Row | Structure (SMILES) | ECM crosslinking (Caki-1 cells) | Area Under the Curve (AUC) (PK analysis) | clearance (Cl) (PK analysis) | half-life (T½) (PK analysis) | maximum concentration (Cmax) (PK analysis) | volume of distribution (Vd) (PK analysis) | blood cell counts (In vivo toxicity testing; 200 mg/kg vs vehicle) | organ damage (H&E staining of organs) (In vivo toxicity testing; 50 or 200 mg/kg daily for one week) | body weight (In vivo toxicity testing; different doses administered daily (25-200 mg/kg, 5 days)) | tumor growth (4T1; 6403 50 mg/kg P.O. daily with doxorubicin 2 mg/kg I.V. weekly, vs either alone) | blood counts (4T1; combination, 21-day treatment) | body weights (4T1; combination, 21-day treatment)
1 | Cc1nc(N)sc1-c1csc(Nc2ccc([N+](=O)[O-])cc2)n1 [compound 6232, 4-methyl-5-[2-(4-nitroanilino)thiazol-4-yl]thiazol-2-amine] | decrease in ECM crosslinking |  |  |  |  |  |  |  |  |  |  | 
2 | CC(=O)Nc1ccc(Nc2nc(-c3sc(N)nc3C)cs2)cc1 [compound 6403, N-[4-[[4-(2-amino-4-methyl-thiazol-5-yl)thiazol-2-yl]amino]phenyl]acetamide] |  | high | low | long | high | high | No significant effect | did not lead to any observable organ damage | No significant effect | significantly reduced tumor growth | no significant change | no significant change
